Assay results: article PMC9628931 (Chemical Science, 2022)

Experiments:
AsAKS1 (BAHD3, 43565_t) = biological target: T1, AsAKS1 (BAHD3, 43565_t) (Alstonia scholaris, UniProt A0A9E7S5E3); assay: LCMS detection of akuammiline; format: biochemical; conditions: co-substrate rhazimol
T1 sequence (A0A9E7S5E3 1-419): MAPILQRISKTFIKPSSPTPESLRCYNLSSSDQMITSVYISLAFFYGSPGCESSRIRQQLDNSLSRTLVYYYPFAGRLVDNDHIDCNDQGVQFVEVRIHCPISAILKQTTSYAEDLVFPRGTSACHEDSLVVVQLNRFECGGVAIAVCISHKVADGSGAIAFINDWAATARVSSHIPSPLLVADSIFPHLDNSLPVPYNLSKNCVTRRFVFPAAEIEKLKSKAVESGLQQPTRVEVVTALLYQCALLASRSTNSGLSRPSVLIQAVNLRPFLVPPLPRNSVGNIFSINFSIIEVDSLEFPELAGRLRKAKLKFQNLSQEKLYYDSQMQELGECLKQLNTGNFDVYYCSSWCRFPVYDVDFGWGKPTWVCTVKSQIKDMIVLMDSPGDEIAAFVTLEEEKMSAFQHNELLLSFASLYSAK

AsAKS2 (BAHD5, 37058_t) = biological target: T2, AsAKS2 (BAHD5, 37058_t) (Alstonia scholaris, UniProt A0A9E7LUL3); assay: LCMS detection of akuammiline; format: biochemical; conditions: co-substrate rhazimol
T2 sequence (A0A9E7LUL3 1-450): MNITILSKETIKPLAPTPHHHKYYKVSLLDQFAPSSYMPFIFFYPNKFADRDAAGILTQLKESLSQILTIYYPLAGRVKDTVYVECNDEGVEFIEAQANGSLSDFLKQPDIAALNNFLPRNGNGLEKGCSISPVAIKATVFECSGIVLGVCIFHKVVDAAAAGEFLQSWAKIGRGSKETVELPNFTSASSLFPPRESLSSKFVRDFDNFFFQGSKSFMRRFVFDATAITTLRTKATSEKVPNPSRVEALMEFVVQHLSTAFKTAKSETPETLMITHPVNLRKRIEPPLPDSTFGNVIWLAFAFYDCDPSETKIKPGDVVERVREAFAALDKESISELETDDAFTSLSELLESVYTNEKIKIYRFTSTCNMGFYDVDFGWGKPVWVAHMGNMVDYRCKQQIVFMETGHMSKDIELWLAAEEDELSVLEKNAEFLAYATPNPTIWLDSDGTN

Structure (SMILES): CC(=O)SCCNC(=O)CCNC(=O)[C@H](O)C(C)(C)COP(=O)(O)OP(=O)(O)OC[C@H]1O[C@@H](n2cnc3c(N)ncnc32)[C@H](O)[C@@H]1OP(=O)(O)O [acetyl-CoA]
- LCMS detection of akuammiline (AsAKS1 (BAHD3, 43565_t)): The BAHD candidates were assayed by incubation with rhazimol and acetyl-CoA
- LCMS detection of akuammiline (AsAKS2 (BAHD5, 37058_t)): The BAHD candidates were assayed by incubation with rhazimol and acetyl-CoA
